{"source": "PubChem BioAssay AID1919014", "about": "(Molecular Pharmacology Branch, DTP, NCI, 2023)", "system": "NCI-H1341 complex spheroids, percent test/control", "assay": "Anticancer human tumor NCI-H1341 cell line growth inhibition [AhR];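 as to all read-outs here: spheroids exposed to agents for seven days before readout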", "settings": "for pIC50: curve of first compound; for viability, T/C: stronger effect = lower value", "excerpt": "Multicellular complex tumor spheroid response to aryl hydrocarbon receptor antagonists in combination with a variety of drugs and investigational agents in selected tumor cell lines\nThe current study was undertaken to assess response to aryl hydrocarbon receptor antagonists in combination with standard-of-care drugs and investigational agents in solid tumor complex spheroid models. Complex spheroids include a stromal component modeled by human endothelial cells (HUVEC) and fibroblasts modeled by human mesenchymal stem cells (MSCs). The concentration ranges selected for each drug and investigational agent were based upon clinically achievable concentrations if the clinical Cmax of the agent was known.\nCompounds. The drugs and investigational agents: BAY 2416964 (NSC825713), GNF351 (NSC835774), CH-223191 (NSC835775), CPI-455 (NSC825282), aza-TdCyd (NSC777586), decitabine (NSC127716), belinostat (NSC758774), entinostat (NSC756642), pevonedistat (NSC761192), tazemetostat (NSC777109), talazoparib (NSC765396), olaparib (NSC753686), selinexor (NSC780203), nedisertib (M3814, NSC802822), bortezomib (NSC756655), venetoclax (NSC766270), doxorubicin (NSC123127), elimusertib (BAY189344, NSC800525), ceralasertib (AZD6738, NSC777638), TAK-243 (NSC785004), alisertib (NSC759677), etoposide (NSC141540), topotecan (NSC609699), eribulin (NSC707389), gemcitabine (NSC613327), carboplatin (NSC241240), cisplatin (NSC119875), and SN-38 (NSC673596) were obtained from the National Cancer Institute (NCI) Developmental Therapeutics Program Chemical Repository (32). The FDA-approved anticancer drug set is available from the Developmental Therapeutics Program at https://dtp.cancer.gov/organization/dscb/obtaining/available plates.htm. […] The stock solutions were prepared in dimethyl sulfoxide (DMSO, Sigma-Aldrich, St. Louis, MO, cat. D2650), except for the platinum compounds which were prepared in saline (Quality Biological, Gaithersburg, MD, cat. 114-055-101), at 800-fold the tested concentration and stored at -70 degrees C prior to their use. All drugs and investigational agents were tested over a range starting from a high concentration at or near the clinical Cmax and decreasing in half-log increments. If the clinical Cmax for an agent had not been determined, the highest concentration tested was 10 microM (Table 1).\nCell Culture. All cells were maintained in an incubator at 37 degrees C and 5% CO2 with 95% humidity. The PDC lines were cultured according to standard operating procedures established by the NCI PDMR (https://pdmr.cancer.gov). Briefly, all PDCs were thawed and cultured in Matrigel-coated flasks prepared with a working solution of 1X Ham's F-12 nutrient mix, without supplementation (Invitrogen, Waltham, MA, cat. 11765054), 100 U/mL penicillin-streptomycin (Invitrogen, cat. 15140122), and 2.5% Matrigel (Corning Inc., Corning, NY, cat. 354248) for the first three passages. All PDCs were cultured in complete DMEM/F-12 media containing advanced DMEM/F-12 (Invitrogen, cat. 12634028), 4.9% defined fetal bovine serum, heat inactivated (HyClone Laboratories Inc., Logan, UT, cat. SH30070.03HI), 389 ng/mL hydrocortisone (Sigma-Aldrich, cat. H4001), 9.7 ng/mL human EGF recombinant protein (Invitrogen, cat. PHG0313), 23.4 microg/mL adenine (Sigma-Aldrich, cat. A2786), 97.3 U/mL penicillin-streptomycin (Invitrogen, cat. 15140122), 1.9 mM L-glutamine (Invitrogen, cat. 25030081), and 9.7 microM Y-27632 dihydrochloride (Tocris Bioscience, Bristol, United Kingdom, cat. 1254). The PDCs were cultured in complete DMEM/F12 media without 10 microM Y-27632 dihydrochloride for at least two passages prior to the screen. The established cell lines NCI-H1341 and […] were cultured in DMEM/F-12, HEPES (Invitrogen, cat. 11330032), 5% defined fetal bovine serum (HyClone Laboratories Inc., cat. SH30070.03), ITS premix universal culture supplement [insulin (5 microg/mL), transferrin (5 microg/mL), and selenious acid (5 ng/mL)] […]", "note": "pIC50: −log10 of the molar value."}
{"smiles": "CCc1c2c(nc3ccc(O)cc13)-c1cc3c(c(=O)n1C2)COC(=O)[C@]3(O)CC", "note": "+ CC(CO)NC(=O)c1cc(-c2ccc(Cl)cc2)nn(-c2cnn(C)c2)c1=O", "values": [{"measurement": "pIC50", "setting": "second compound 0.1 µM", "result": 7.91}, {"measurement": "pIC50", "setting": "second compound 0.316 µM", "result": 8.10}, {"measurement": "pIC50", "setting": "second compound 1 µM", "result": 8.02}, {"measurement": "pIC50", "setting": "second compound 3.16 µM", "result": 8.29}, {"measurement": "pIC50", "setting": "second compound 10 µM", "result": 8.46}, {"measurement": "viability, T/C", "setting": "second compound 0.1 µM, first compound 0.000949 µM", "result": 67.7, "unit": "%"}, {"measurement": "viability, T/C", "setting": "second compound 0.1 µM, first compound 0.003 µM", "result": 74, "unit": "%"}, {"measurement": "viability, T/C", "setting": "second compound 0.1 µM, first compound 0.00949 µM", "result": 46.6, "unit": "%"}, {"measurement": "viability, T/C", "setting": "second compound 0.1 µM, first compound 0.03 µM", "result": 38.8, "unit": "%"}, {"measurement": "viability, T/C", "setting": "second compound 0.1 µM, first compound 0.0949 µM", "result": 30.7, "unit": "%"}, {"measurement": "viability, T/C", "setting": "second compound 0.1 µM, first compound 0.3 µM", "result": 16.9, "unit": "%"}, {"measurement": "viability, T/C", "setting": "second compound 0.316 µM, first compound 0.000949 µM", "result": 71.8, "unit": "%"}, {"measurement": "viability, T/C", "setting": "second compound 0.316 µM, first compound 0.003 µM", "result": 61.8, "unit": "%"}, {"measurement": "viability, T/C", "setting": "second compound 0.316 µM, first compound 0.00949 µM", "result": 48.1, "unit": "%"}, {"measurement": "viability, T/C", "setting": "second compound 0.316 µM, first compound 0.03 µM", "result": 33.4, "unit": "%"}, {"measurement": "viability, T/C", "setting": "second compound 0.316 µM, first compound 0.0949 µM", "result": 26.5, "unit": "%"}, {"measurement": "viability, T/C", "setting": "second compound 0.316 µM, first compound 0.3 µM", "result": 16, "unit": "%"}, {"measurement": "viability, T/C", "setting": "second compound 1 µM, first compound 0.000949 µM", "result": 62.8, "unit": "%"}, {"measurement": "viability, T/C", "setting": "second compound 1 µM, first compound 0.003 µM", "result": 67.6, "unit": "%"}, {"measurement": "viability, T/C", "setting": "second compound 1 µM, first compound 0.00949 µM", "result": 48.2, "unit": "%"}, {"measurement": "viability, T/C", "setting": "second compound 1 µM, first compound 0.03 µM", "result": 31.4, "unit": "%"}, {"measurement": "viability, T/C", "setting": "second compound 1 µM, first compound 0.0949 µM", "result": 29.5, "unit": "%"}, {"measurement": "viability, T/C", "setting": "second compound 1 µM, first compound 0.3 µM", "result": 17.4, "unit": "%"}, {"measurement": "viability, T/C", "setting": "second compound 3.16 µM, first compound 0.000949 µM", "result": 73, "unit": "%"}, {"measurement": "viability, T/C", "setting": "second compound 3.16 µM, first compound 0.003 µM", "result": 53.2, "unit": "%"}, {"measurement": "viability, T/C", "setting": "second compound 3.16 µM, first compound 0.00949 µM", "result": 39, "unit": "%"}, {"measurement": "viability, T/C", "setting": "second compound 3.16 µM, first compound 0.03 µM", "result": 37.4, "unit": "%"}, {"measurement": "viability, T/C", "setting": "second compound 3.16 µM, first compound 0.0949 µM", "result": 26.5, "unit": "%"}, {"measurement": "viability, T/C", "setting": "second compound 3.16 µM, first compound 0.3 µM", "result": 14.1, "unit": "%"}, {"measurement": "viability, T/C", "setting": "second compound 10 µM, first compound 0.000949 µM", "result": 61, "unit": "%"}, {"measurement": "viability, T/C", "setting": "second compound 10 µM, first compound 0.003 µM", "result": 47.9, "unit": "%"}, {"measurement": "viability, T/C", "setting": "second compound 10 µM, first compound 0.00949 µM", "result": 43.8, "unit": "%"}, {"measurement": "viability, T/C", "setting": "second compound 10 µM, first compound 0.03 µM", "result": 32.4, "unit": "%"}, {"measurement": "viability, T/C", "setting": "second compound 10 µM, first compound 0.0949 µM", "result": 23.4, "unit": "%"}, {"measurement": "viability, T/C", "setting": "second compound 10 µM, first compound 0.3 µM", "result": 10.8, "unit": "%"}]}
